Test results: ChEMBL document CHEMBL1201862, “PubChem BioAssay data set” (2004)
Activity calls are given as the source filed them.

Key:
[1] = loss of viability in HepG2 cells – cell-based, CellTiter-Glo, cherry-picked, cytotoxicity control for Shn3 inhibitor project, dose response (AID 624134); type: functional
[2] = test system: INS1; assay: INS-1E survival protection against cytokine death – cell-based, luminescence, retest, dose response (AID 449756); type: functional; details: Rattus norvegicus;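 further: cell death triggered by IL-1 beta plus TNF-alpha plus IFN-gamma mixture; protective hits raise ATP signal compared with cytokine alone wells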
[3] = molecular target: RNA-editing ligase 1, mitochondrial (Trypanosoma brucei brucei, UniProt P86926); assay: inhibition of trypanosome RNA editing ligase – biochemical, fluorescence, Trypanosoma brucei, dose response (AID 1117295); type: functional
Chain of RNA-editing ligase 1, mitochondrial (P86926 whole entry): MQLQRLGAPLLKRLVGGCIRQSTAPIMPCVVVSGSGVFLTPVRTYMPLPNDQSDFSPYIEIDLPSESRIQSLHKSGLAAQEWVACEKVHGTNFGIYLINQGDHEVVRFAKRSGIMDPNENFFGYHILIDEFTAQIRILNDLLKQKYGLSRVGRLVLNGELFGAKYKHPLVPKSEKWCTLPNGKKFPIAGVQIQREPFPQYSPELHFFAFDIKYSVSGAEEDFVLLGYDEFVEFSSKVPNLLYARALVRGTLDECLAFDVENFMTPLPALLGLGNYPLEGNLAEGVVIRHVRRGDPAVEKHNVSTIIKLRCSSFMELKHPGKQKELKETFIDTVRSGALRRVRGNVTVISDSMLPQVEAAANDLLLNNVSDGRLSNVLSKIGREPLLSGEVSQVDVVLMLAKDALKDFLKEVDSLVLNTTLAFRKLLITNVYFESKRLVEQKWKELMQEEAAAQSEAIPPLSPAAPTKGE

[4] = non-specific 3'UTR reporter inhibition in Clone20-Shn3RL – cell-based, Renilla luciferase, cherry-picked, counter-screen for Shn3 inhibitor project, dose response (AID 624133); type: functional
[5] = reduction of Shn3 3'UTR-driven luciferase in osteoblasts – cell-based, Clone20 osteoblasts, firefly luciferase, cherry-picked, dose response (AID 624132); type: functional;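 further: firefly luciferase luminescence from reporter carrying the Shn3 3'UTR in osteoblasts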
[6] = Luminescence Cell-Based Dose Retest to Confirm Inhibitors of Cancer Stem Cells. [Related pubchem assays (depositor defined):AID2717, AID2721]; type: functional; details: Homo sapiens
[7] = molecular target: Nonstructural protein 1 (Influenza A virus, UniProt Q194T2); type: functional, Influenza A virus (A/California/07/2009(H1N1))
Chain of Nonstructural protein 1 (Q194T2 whole entry): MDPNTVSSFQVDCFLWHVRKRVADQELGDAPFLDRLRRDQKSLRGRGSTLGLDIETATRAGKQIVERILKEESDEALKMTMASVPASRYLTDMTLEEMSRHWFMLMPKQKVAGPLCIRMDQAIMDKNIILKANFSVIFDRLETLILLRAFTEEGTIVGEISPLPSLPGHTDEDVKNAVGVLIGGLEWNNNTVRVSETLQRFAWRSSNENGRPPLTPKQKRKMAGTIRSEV

[8] = molecular target: Protein Tat (Human immunodeficiency virus type 1 group M subtype B (isolate HXB2)(HIV-1), UniProt P04608); type: functional;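 further: tat binding to TAR RNA read out by fluorescence polarization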
Chain of Protein Tat (P04608 whole entry): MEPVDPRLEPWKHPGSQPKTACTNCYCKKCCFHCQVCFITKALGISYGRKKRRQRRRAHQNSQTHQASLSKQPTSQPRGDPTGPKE

[9] = molecular target: E3 ubiquitin-protein ligase Mdm2 (Homo sapiens, UniProt Q00987); assay: MDM2-luc reporter signal enhancers, multi-concentration potency testing, MDM2 ubiquitin-protein ligase inhibitor program, whole-cell format, luminescence detection, 384-well microplate (AID 1394); type: functional;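 further: MDM2 E3 inhibitors raise luminescence so EC50 is for signal enhancement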
Chain of E3 ubiquitin-protein ligase Mdm2 (Q00987 whole entry): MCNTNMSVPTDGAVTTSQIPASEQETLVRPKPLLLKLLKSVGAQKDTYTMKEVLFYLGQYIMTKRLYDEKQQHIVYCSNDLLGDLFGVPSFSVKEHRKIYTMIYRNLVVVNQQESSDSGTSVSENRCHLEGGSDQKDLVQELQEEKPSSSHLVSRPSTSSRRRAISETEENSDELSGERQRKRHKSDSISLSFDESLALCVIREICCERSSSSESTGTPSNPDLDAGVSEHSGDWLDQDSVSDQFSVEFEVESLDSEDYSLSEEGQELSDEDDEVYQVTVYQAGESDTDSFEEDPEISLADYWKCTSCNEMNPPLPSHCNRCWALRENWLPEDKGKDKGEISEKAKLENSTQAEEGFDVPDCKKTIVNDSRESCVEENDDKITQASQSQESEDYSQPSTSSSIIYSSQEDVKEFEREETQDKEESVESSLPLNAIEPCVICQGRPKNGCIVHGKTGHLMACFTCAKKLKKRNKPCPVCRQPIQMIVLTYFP

[10] = molecular target: T1, E3 ubiquitin-protein ligase XIAP (Homo sapiens, UniProt P98170); assay: small molecules displacing peptide from XIAP – biochemical, IAP family, fluorescence polarization (AID 1018); type: functional
T1 sequence (P98170 whole entry): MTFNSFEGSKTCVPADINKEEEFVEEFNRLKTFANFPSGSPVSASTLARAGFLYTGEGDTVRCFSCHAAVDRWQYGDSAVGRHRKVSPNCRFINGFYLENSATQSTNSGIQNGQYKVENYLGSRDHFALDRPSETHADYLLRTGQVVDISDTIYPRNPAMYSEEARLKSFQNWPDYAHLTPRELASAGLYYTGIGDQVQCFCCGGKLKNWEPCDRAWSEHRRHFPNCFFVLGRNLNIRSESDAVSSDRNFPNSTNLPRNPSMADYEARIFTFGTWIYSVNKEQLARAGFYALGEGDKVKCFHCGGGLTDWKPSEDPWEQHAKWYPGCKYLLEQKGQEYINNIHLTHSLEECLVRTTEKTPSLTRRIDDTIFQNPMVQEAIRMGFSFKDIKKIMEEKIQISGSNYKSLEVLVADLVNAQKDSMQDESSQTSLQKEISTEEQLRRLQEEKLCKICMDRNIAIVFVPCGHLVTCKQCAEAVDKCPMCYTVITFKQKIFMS

[11] = molecular target: T1, E3 ubiquitin-protein ligase XIAP; assay: Counter Screen using XIAP-Bir3 for Chemical Antagonists of Bir1/2 domains of IAP-family anti-apoptotic proteins. [Related pubchem assays (depositor defined):AID1018, AID1449, AID1514, AID1638, AID1749, AID1750, AID488957, AID488963]
[12] = molecular target: Induced myeloid leukemia cell differentiation protein Mcl-1 (Homo sapiens, UniProt Q07820); assay: blockers of MCL1 binding to BIM peptide – biochemical, fluorescence polarization, BIM-BH3 peptide, 1536-well, dose response (AID 2217)
Chain of Induced myeloid leukemia cell differentiation protein Mcl-1 (Q07820 whole entry): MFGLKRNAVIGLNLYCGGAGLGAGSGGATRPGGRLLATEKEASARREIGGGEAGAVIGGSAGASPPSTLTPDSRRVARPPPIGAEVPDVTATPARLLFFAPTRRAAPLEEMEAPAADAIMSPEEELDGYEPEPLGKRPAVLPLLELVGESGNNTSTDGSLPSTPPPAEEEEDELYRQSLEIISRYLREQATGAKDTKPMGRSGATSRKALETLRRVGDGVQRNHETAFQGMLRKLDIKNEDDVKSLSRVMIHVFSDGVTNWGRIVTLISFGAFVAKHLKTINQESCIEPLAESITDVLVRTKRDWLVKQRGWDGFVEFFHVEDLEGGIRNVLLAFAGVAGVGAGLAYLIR

[13] = molecular target: Large T antigen (Simian virus 40, UniProt P03070); type: functional, Betapolyomavirus macacae;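 further: Confirmatory-stage PubChem screen for compounds that inhibit SV40 T antigen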
Chain of Large T antigen (P03070 whole entry): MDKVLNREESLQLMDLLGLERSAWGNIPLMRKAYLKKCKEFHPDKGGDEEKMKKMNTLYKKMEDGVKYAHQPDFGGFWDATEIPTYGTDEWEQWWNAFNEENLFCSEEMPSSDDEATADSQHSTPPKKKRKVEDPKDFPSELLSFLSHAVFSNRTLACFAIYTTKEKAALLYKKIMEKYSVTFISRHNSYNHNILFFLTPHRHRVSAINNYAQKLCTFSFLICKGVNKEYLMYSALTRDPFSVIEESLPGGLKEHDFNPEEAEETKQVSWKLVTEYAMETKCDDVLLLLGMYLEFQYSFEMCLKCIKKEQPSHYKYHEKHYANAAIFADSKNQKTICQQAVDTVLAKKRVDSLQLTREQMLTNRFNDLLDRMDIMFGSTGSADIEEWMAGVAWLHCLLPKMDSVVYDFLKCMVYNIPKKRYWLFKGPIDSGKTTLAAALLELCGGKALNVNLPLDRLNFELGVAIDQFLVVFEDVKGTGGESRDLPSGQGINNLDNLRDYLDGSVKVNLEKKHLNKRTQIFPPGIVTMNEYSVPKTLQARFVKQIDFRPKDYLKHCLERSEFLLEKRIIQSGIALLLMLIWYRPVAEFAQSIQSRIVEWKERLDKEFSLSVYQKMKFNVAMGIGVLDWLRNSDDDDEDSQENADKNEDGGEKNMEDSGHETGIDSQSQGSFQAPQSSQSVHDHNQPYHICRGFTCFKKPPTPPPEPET

[14] = molecular target: Bcl-2-like protein 1 (Homo sapiens, UniProt Q07817); assay: blockers of BCLXL peptide binding – biochemical, fluorescence polarization, 1536-well, selectivity assay for MCL1 inhibitor project, dose response (AID 2218)
Chain of Bcl-2-like protein 1 (Q07817 whole entry, the tested form may be a part): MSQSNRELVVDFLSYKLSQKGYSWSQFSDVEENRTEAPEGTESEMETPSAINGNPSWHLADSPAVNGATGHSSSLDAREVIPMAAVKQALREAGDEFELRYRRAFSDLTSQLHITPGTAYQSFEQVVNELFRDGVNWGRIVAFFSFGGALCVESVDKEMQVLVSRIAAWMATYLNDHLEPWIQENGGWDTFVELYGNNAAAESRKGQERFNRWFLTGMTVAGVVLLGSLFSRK

[15] = molecular target: T2, Estrogen receptor (Homo sapiens, UniProt P03372); assay: ERα coactivator recruitment enhancers – biochemical, TR-FRET, ERα LBD, dose response (AID 737)
T2 sequence (P03372 whole entry): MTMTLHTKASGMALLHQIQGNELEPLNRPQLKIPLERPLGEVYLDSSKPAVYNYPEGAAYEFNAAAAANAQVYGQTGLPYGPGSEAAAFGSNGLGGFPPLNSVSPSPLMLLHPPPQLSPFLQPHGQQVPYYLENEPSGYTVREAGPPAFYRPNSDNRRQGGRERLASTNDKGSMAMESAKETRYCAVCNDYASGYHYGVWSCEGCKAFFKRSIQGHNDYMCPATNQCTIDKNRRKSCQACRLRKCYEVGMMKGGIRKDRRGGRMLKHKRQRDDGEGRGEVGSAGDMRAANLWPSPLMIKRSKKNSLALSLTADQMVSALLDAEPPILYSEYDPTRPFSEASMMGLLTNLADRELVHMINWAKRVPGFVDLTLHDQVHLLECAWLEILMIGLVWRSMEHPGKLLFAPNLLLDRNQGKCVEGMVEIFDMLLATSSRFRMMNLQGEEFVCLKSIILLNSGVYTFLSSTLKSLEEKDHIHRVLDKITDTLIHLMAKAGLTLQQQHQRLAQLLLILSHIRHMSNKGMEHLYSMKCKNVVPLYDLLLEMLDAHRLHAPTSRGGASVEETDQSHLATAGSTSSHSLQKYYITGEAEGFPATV

[16] = molecular target: Estrogen receptor beta (Homo sapiens, UniProt Q92731);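 further: recombinant ER-beta bound to coactivator SRC1 peptide in presence of estradiol agonist; inhibitors block coactivator peptide binding and lower the FRET signal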
Chain of Estrogen receptor beta (Q92731 whole entry, the tested form may be a part): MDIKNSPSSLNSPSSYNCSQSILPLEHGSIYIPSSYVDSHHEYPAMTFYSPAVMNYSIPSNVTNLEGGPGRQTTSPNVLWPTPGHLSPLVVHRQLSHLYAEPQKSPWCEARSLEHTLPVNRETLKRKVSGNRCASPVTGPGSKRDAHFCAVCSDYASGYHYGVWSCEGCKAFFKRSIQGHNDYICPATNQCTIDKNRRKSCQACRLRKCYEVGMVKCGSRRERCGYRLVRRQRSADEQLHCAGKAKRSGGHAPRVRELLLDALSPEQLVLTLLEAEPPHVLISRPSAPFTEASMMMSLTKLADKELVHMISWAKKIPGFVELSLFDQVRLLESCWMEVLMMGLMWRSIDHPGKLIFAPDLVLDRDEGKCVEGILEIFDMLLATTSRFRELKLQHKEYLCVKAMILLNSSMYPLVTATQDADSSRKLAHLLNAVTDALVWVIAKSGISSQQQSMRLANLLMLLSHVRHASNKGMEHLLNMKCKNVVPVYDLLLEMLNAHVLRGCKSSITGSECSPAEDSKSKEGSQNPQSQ

[17] = molecular target: T3, Oxysterols receptor LXR-beta (Homo sapiens, UniProt P55055); type: functional, cell-based;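 further: Cell-based luminescence dose-response assay of agonist activity at LXR, run as a confirmatory counterscreen to a daf-12 agonist screen; HEK293 cells with Gal4-LXR fusion and GAL4-driven luciferase reporter; agonist potency from rising luciferase signal of a Gal4-LXR reporter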
T3 sequence (P55055 whole entry): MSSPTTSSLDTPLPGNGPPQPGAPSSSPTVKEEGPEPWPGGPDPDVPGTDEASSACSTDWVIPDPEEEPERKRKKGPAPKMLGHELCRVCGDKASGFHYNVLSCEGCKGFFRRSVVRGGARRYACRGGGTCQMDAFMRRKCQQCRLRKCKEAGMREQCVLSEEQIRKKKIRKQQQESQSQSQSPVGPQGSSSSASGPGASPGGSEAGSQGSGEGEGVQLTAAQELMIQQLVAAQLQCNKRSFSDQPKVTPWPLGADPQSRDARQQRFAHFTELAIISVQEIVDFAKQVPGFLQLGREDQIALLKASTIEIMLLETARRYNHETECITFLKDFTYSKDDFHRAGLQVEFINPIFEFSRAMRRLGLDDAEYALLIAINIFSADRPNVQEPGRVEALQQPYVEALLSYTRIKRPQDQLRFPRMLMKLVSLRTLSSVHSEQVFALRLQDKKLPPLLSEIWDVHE

[18] = cells
[19] = test system: H4; assay: Luminescence Cell-Based Dose Response HTS to Identify Activators of 5'UTR Stem-Loop Driven Prion Protein mRNA Translation in H4 Neuroglioblastoma Cells. [Related pubchem assays: 1829 (Project Summary), 1814 (Primary HTS)]; type: functional; details: Homo sapiens
[20] = Luminescence Cell-Based Dose Response to Identify Activators of Luciferase Translation or Activity in H4-C Neuroglioblastoma Cells. [Related pubchem assays: 1829 (Project Summary), 1814 (Primary HTS)]; type: functional
[21] = Luminescence Cell-Based Dose Response to Identify Activators of 5'UTR Stem-Loop Driven Prion Protein mRNA Translation in H4-C Neuroglioblastoma Cells. [Related pubchem assays: 1829 (Project Summary), 1814 (Primary HTS)]; type: functional
[22] = Luminescence Cell-Based Dose Confirmation to Identify Activators of 5'UTR Stem-Loop Driven Alpha-Synuclein mRNA Translation in H4 Neuroglioblastoma Cells. [Related pubchem assays: 1829 (Project Summary), 1814 (Primary HTS)]; type: functional
[23] = molecular target: T4, Tyrosine-protein phosphatase non-receptor type 7 (Homo sapiens, UniProt P35236); assay: HePTP tyrosine phosphatase activity blockers – biochemical, absorbance, leukemia target, primary screen (AID 521); type: functional
T4 sequence (P35236 whole entry): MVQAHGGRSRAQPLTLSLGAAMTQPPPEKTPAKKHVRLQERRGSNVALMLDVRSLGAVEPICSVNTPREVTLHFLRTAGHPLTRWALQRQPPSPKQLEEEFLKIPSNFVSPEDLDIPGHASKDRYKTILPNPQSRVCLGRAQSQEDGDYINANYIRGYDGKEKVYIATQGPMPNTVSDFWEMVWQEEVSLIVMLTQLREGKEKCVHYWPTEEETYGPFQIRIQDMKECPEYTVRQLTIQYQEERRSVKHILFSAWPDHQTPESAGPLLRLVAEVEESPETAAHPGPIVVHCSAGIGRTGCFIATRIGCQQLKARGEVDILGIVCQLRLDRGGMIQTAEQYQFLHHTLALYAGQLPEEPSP

[24] = molecular target: Kallikrein-7 (Homo sapiens, UniProt P49862); assay: Fluorescence Intensity-based biochemical primary high throughput dose response assay to identify activators of kallikrein-7 (K7) zymogen.
Chain of Kallikrein-7 (P49862 whole entry): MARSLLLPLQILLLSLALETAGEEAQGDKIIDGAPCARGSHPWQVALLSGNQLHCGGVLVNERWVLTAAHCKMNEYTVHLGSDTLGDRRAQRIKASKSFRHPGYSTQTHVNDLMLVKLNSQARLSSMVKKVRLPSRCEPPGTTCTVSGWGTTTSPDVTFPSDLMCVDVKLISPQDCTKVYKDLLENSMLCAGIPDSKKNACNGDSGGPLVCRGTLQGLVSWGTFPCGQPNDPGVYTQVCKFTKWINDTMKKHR

[25] = Luminescence Cell-Based Dose Response HTS to Identify Activators of Luciferase Translation or Activity in H4 […] Cells. [Related pubchem assays: 1829 (Project Summary), 1814 (Primary HTS)]; type: functional
[26] = cytotoxicity in MITF-independent A375 cells – cell-based, CellTiter-Glo luminescence, dry powder, set 4, counter-screen for MITF inhibitor project, dose response (AID 624364); type: functional; details: A-375;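 further: A375 melanoma cells are MITF independent so this is a counter screen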
[27] = viability loss in MITF-independent A375 cells – cell-based, CellTiter-Glo luminescence, dry powder, set 2, counter-screen for MITF inhibitor project, dose response (AID 624489); type: functional; details: A-375;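 further: actives are compounds lowering A375 viability meaning general cytotoxicity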
[28] = NIH3T3 cell viability loss – ATP luminescence, mouse fibroblasts, counter-screen, dose response (AID 2010); type: functional, cell-based;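 further: cells exposed to compound for about 90 hours before reading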
[29] = molecular target: Glucose-6-phosphate 1-dehydrogenase (Homo sapiens, UniProt P11413); assay: inhibition of Homo sapiens G6PD, dose series – biochemical, fluorescence, selectivity assay for P. falciparum G6PD inhibitor project, dose response (AID 504792); type: functional
Chain of Glucose-6-phosphate 1-dehydrogenase (P11413 whole entry): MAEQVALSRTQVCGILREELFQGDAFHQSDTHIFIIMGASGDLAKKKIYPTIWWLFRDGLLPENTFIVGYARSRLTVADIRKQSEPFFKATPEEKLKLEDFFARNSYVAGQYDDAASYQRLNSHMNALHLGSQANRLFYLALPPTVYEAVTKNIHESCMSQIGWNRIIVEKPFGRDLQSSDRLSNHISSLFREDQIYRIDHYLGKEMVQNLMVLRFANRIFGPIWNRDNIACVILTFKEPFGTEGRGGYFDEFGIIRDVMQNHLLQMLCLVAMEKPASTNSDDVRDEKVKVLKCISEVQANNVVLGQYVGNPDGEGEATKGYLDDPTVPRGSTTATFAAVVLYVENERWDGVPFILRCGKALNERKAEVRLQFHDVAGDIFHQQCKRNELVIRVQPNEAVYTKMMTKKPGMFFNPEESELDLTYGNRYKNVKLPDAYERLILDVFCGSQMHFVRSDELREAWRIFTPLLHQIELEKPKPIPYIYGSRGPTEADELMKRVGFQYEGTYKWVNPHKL

[30] = fluconazole-exposed Candida albicans growth modulators – fluorescence, retest, confirmation (AID 2467); type: functional, cell-based
[31] = Trypanosoma cruzi growth suppression in host cells – NIH3T3 host cells, beta-gal luminescence, confirmation (AID 2044); type: functional, cell-based;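 further: intracellular parasites grown in NIH/3T3 mouse fibroblasts as host cells; luminescent beta-galactosidase reporter signal from transgenic T. cruzi replicating inside host cells; inhibitors lower the luminescence signal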
[32] = molecular target: T5, Mannose-6-phosphate isomerase (Homo sapiens, UniProt P34949); assay: MPI inhibition at elevated mannose 6-phosphate – biochemical, fluorescence intensity, high mannose 6-phosphate, primary screen (AID 1220)
T5 sequence (P34949 whole entry): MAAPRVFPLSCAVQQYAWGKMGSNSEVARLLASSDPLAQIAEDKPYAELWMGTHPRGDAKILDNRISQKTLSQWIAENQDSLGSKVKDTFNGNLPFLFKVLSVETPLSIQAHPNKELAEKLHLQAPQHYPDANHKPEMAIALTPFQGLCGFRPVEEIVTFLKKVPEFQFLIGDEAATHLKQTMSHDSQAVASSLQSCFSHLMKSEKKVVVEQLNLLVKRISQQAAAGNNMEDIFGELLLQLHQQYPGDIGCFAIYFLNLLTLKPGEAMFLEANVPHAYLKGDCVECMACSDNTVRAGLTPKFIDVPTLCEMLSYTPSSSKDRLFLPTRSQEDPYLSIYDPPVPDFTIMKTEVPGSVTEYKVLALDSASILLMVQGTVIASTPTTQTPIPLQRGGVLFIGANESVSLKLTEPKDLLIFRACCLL

[33] = NIH-3T3 fibroblast cytotoxicity, dose response, cytotoxicity control, cell-based, fluorescence, Alamar Blue, secondary assay (AID 2327); type: functional;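 further: NIH-3T3 mouse fibroblasts cultured with fluconazole at 8 µg/mL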
[34] = test system: Vero; assay: cells; type: functional; details: Chlorocebus sabaeus

## COc1ccc(C(CCNCc2ccc(OC(C)C)cc2)c2ccccc2OC)cc1 (configuration not stated)
[1]
  AC50: 15.3 µM (active)
[2]
  AC50: 7.21 µM (active)
[3]
  IC50: > 96.6 µM (inactive)
[4]
  AC50: 4.38 µM (active)
[5]
  AC50: 6.44 µM (active)
[6]
  AC50: 5.99 µM (active)

## Oc1ccccc1C=Nc1ccc(F)c2c(O)[nH]nc12
[7]
  IC50: 41.6 µM (active)
[8]
  IC50: 3.3 µM (inconclusive)

## Cc1cc(NC(=O)CSc2nc(C(C)C)nc3c2c(=O)n(C)c(=O)n3C)no1
[9]
  EC50: 12.3 µM (not active)

## CC(=O)Nc1ccc(S(=O)(=O)N(C)CC(=O)OCC(=O)N2CCc3ccccc32)cc1
[9]
  EC50: 149 µM (not active)

## COc1ccccc1Cn1c(=O)c2ccccc2n2c(SCC(=O)N3CCCCC3)nnc12
[10]
  IC50: > 100 µM (not active)
[11]
  IC50: > 100 µM (inactive)

## O=C(O)C1Nc2ccc(OC(F)(F)F)cc2C2C=CCC12 (configuration not stated)
[12]
  IC50: 8.63 µM (active)
[13]
  IC50: 12.7 µM (active)
[14]
  IC50: 60.6 µM (not active)

## Cc1ccc(NC(=O)CSc2nnc(-c3cnccn3)n2Cc2ccco2)cc1C
[15]
  EC50: 37.6 µM (not active)

## CN(C1CCCCC1)S(=O)(=O)c1ccc(S(=O)(=O)N2CCN(CCC#N)CC2)cc1
[16]
  IC50: > 50 µM (not active)

## CC(=O)Nc1ccc(NC(=O)CSCc2cnn(-c3ccccc3)c2-n2cccc2)cc1
[8]
  IC50: > 100 µM (active)

## Cc1cc(/C=C2\SC(=S)N=C2O)c(C)n1-c1ccccc1
[17]
  EC50: > 67.6 µM (inactive)

## Cc1cc(/C=C2\SC(=S)NC2=O)c(C)n1-c1ccccc1
[18]
  EC50: > 67.6 µM (inactive)

## CC(C)(C)c1ccc(OCCn2ccccc2=O)cc1
[19]
  EC50: < 0.1 µM (active)
[20]
  EC50: 0.237 µM (active)
[21]
  EC50: 0.546 µM (active)
[22]
  EC50: 0.668 µM (active)

## CCn1cc(C(=O)NCC2CCCO2)c(=O)c2cc(S(=O)(=O)N3CCC(C)CC3)ccc21 (configuration not stated)
[23]
  IC50: > 100 µM (not active)

## CCc1ccccc1NC(=O)CSc1nc2nnc(C)c-2c(N)n1-c1ccc(OC)cc1
[24]
  EC50: 4.1 µM (active)

## O=c1nc(NCc2ccco2)sc2ncccc12
[10]
  IC50: > 100 µM (not active)
[11]
  IC50: > 100 µM (inactive)

## O=C(Nc1ncc2c(n1)-c1ccccc1OC2)c1ccc(F)cc1
[24]
  EC50: > 69.5 µM (inactive)

## O=C(NC1=NCCS1)c1ccc(Cl)cc1
[19]
  EC50: 101 µM (active)
[20]
  EC50: 0.401 µM (active)
[21]
  EC50: 0.744 µM (active)
[22]
  EC50: 0.24 µM (active)
[25]
  EC50: < 0.1 µM (inconclusive)

## COc1ccc(OC)c(C2C(C(=O)Nc3ccccc3OC)=C(C)Nc3nc(CCCO)nn32)c1 (configuration not stated)
[23]
  IC50: > 100 µM (not active)

## O=C1C(NS(=O)(=O)c2ccc(Br)s2)=C(N2CCCCC2)C(=O)c2ccccc21
[26]
  AC50: > 70 µM (inactive)
[27]
  AC50: > 70 µM (inactive)

## COC(=O)C1=C(C)N(Cc2ccc(C(F)(F)F)cc2)C(NCc2cccc(C(F)(F)F)c2)=NC1c1ccccc1C(F)(F)F (configuration not stated)
[3]
  IC50: > 96.6 µM (inactive)

## COc1cccc(C2=C(NC(=O)c3ccccc3)C(=O)c3ccccc3C2=O)c1
[26]
  AC50: 21 µM (active)
[27]
  AC50: 10.5 µM (active)

## COc1cc(CNc2ccc(N3CCCC3)cc2)cc(Cl)c1OC
[28]
  EC50: > 30 µM (not active)
[29]
  IC50: > 80 µM (inactive)
[30]
  EC50: > 38 µM (not active)
[31]
  EC50: 2.95 µM (active)
[32]
  IC50: > 50 µM (not active)
[33]
  EC50: 48.1 µM (inconclusive)
[34]
  CC50: 4.57 µM (active)
